The values below come from ChEMBL document CHEMBL1201862, “PubChem BioAssay data set” (2004).

Some test systems named below: SNB-75; HCT-15; OVCAR-8; SF-539; CCRF-CEM; MCF7; UACC-257; UO-31; NCI-H460; OVCAR-5; A549; M14; HL-60; ACHN; RXF 393; 786-0; OVCAR-4; SW-620; SK-MEL-5.
Assay in all cases: NCI tumour cell line growth inhibition, 48 h

Each structure is given as a SMILES string. Values joined by “and” are separate entries in the source; they are usually repeats but may differ in a detail not shown here. Identical values can stand only once.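 Cells were grown in 96-well plates and exposed to each compound for 48 hours at five concentrations; endpoints were interpolated linearly between bracketing concentrations, or set to the highest concentration if not reached. GI50 is the concentration that inhibits growth by half.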 Active and inactive are the calls of the source. No stated cut-off is given here; in the data, active = GI50 up to about 1.1 µM and inactive = higher. Bounds are passed on as bounds.

In the case of `[O-][S+](CCCl)c1c2ccccc2nc2ccccc12` (stereo not drawn), the GI50 with SNB-75 was > 100 µM (inactive); in the test on HCT-15, over 100 µM; in the test with OVCAR-8, 85.1 µM (inactive); in the test with SF-539 it was 31.9 µM (inactive); in the test on CCRF-CEM, 21.3 µM (inactive); in the test on MCF7, 28.2 µM (inactive). Moreover, the GI50 is > 100 µM (inactive) with UACC-257; > 100 µM (inactive) with UO-31; > 100 µM (inactive) in the test on NCI-H460; > 100 µM (inactive) in the test on OVCAR-5; > 100 µM (inactive) in the test on A549; 75 µM (inactive) in the test on M14. Besides, the GI50 is 29.4 µM (inactive) with HL-60; > 100 µM (inactive) in the test with ACHN; > 100 µM (inactive) in the test with RXF 393; 50.2 µM (inactive) in the test with 786-0; > 100 µM (inactive) in the test on OVCAR-4; 11.3 µM (inactive) with SW-620.

Consider `COC(=O)c1c[nH]c2nc(N3CCOCC3)nn2c1=O`, for which the GI50 with SNB-75 is > 100 µM (inactive); in the test with HCT-15 it was over 100 µM; in the test on OVCAR-8, > 100 µM (inactive); in the test on SK-MEL-5, > 100 µM (inactive); with SF-539 it was > 100 µM (inactive); in the test on CCRF-CEM, > 100 µM (inactive). For the same compound, the GI50 in the test with UACC-257, with UO-31, with NCI-H460, in the test on OVCAR-5, in the test on A549 and in the test with M14 was > 100 µM (inactive) throughout. The GI50 in the test on HL-60, in the test on ACHN, with RXF 393, in the test with 786-0, with OVCAR-4 and with SW-620 was > 100 µM (inactive) throughout.

Consider `CC1(C)C(=O)C=CC2(C)C1CC(O)C1(C)C2CCC2(C)C(c3ccoc3)OC(=O)C3OC321` (stereo not drawn), for which the GI50 with SNB-75 is 15.9 µM (inactive); in the test with HCT-15, 10.6 µM; in the test on OVCAR-8 it was 13.3 µM (inactive); with SK-MEL-5 it was 6.43 µM (inactive); with SF-539, > 10 µM (inactive); in the test with CCRF-CEM, 23.1 µM (inactive). The GI50 was 28.8 µM (inactive) in the test on MCF7; > 10 µM (inactive) in the test with UACC-257; 11.4 µM (inactive) in the test with UO-31; 13.6 µM (inactive) in the test with NCI-H460; 32.3 µM (inactive) in the test on OVCAR-5; 19.2 µM (inactive) in the test with A549. For the same compound, the GI50 was 32 µM (inactive) in the test with M14; 14.1 µM (inactive) in the test with ACHN; 15 µM (inactive) in the test on RXF 393; 12.2 µM (inactive) in the test with 786-0; 15 µM (inactive) in the test with OVCAR-4; 19.8 µM (inactive) in the test on SW-620.

As to `COc1ccc(C2ON(c3cccc(C)n3)CC=C2C)cc1` (stereo not drawn), the GI50 with SNB-75 was 29 µM (inactive); with HCT-15, 26.9 µM; in the test with OVCAR-8, > 100 µM (inactive); with SK-MEL-5, 17.6 µM (inactive); with SF-539, 60 µM (inactive); in the test with CCRF-CEM it was 42.9 µM (inactive). In addition, the GI50 with UACC-257 is 31 µM (inactive); with UO-31, 45.7 µM (inactive); in the test on NCI-H460, 67.9 µM (inactive); in the test with OVCAR-5, > 100 µM (inactive); with A549, 40.7 µM (inactive); in the test on M14, 32.6 µM (inactive). Besides, the GI50 with HL-60 is 18 µM (inactive); in the test with ACHN it was 56 µM (inactive); in the test on RXF 393, 29.4 µM (inactive); in the test on 786-0, 44.7 µM (inactive); in the test with OVCAR-4, 62.5 µM (inactive); in the test on SW-620, 30.6 µM (inactive).

Take `O=c1[nH]nc(Cc2ccc(Cl)cc2)n1/N=C/c1cccs1`: the GI50 is 19.1 µM (inactive) with SNB-75; over 100 µM in the test with HCT-15; 27.5 µM (inactive) in the test with OVCAR-8; 41.3 µM (inactive) in the test on SF-539; > 100 µM (inactive) in the test on CCRF-CEM; 44.3 µM (inactive) in the test with MCF7. For the same compound, the GI50 in the test with UACC-257 is > 100 µM (inactive); in the test on UO-31, 46.2 µM (inactive); in the test on NCI-H460 it was > 100 µM (inactive); in the test on OVCAR-5, 73.3 µM (inactive); in the test on A549, 64.9 µM (inactive); with M14, > 100 µM (inactive). For the same compound, the GI50 in the test on HL-60 was > 100 µM (inactive); in the test on ACHN it was 75.7 µM (inactive); in the test on RXF 393, 15.5 µM (inactive); with 786-0, 26.6 µM (inactive); in the test with OVCAR-4 it was > 100 µM (inactive); in the test with SW-620, > 100 µM (inactive).

In the case of `COc1c(O)c2c3c(c(C)cc(O)c3c1O)C(=O)C(O)(C(C)(C)C(C)=O)C2=O` (stereo not drawn), the GI50 is > 100 µM (inactive) and 61 µM (inactive) in the test with SNB-75; over 100 µM in the test with HCT-15; > 100 µM (inactive) in the test with OVCAR-8; 77.1 µM (inactive) in the test on SK-MEL-5; > 100 µM (inactive) in the test on SF-539; 61.9 µM (inactive) and 57 µM (inactive) with CCRF-CEM. The GI50 with UACC-257, with UO-31, in the test on NCI-H460, in the test on OVCAR-5, in the test with A549 and in the test on M14 was > 100 µM (inactive) throughout. In addition, the GI50 is 51.4 µM (inactive) and 50.9 µM (inactive) in the test with HL-60; > 100 µM (inactive) in the test on ACHN; > 100 µM (inactive) with RXF 393; > 100 µM (inactive) in the test with 786-0; > 100 µM (inactive) in the test on OVCAR-4; > 100 µM (inactive) in the test on SW-620.

Turning to `O=[N+]([O-])c1ccc(-n2nnc(C3=NCCN3)c2-c2ccccc2)cc1`, the GI50 with SNB-75 is > 100 µM (inactive); with HCT-15, over 100 µM; with OVCAR-8, > 100 µM (inactive); with SK-MEL-5, > 100 µM (inactive); in the test with SF-539 it was > 100 µM (inactive); with CCRF-CEM, > 100 µM (inactive). Moreover, the GI50 with UACC-257, with UO-31, with NCI-H460, in the test on OVCAR-5, in the test on A549 and in the test on M14 was > 100 µM (inactive) each time. The GI50 with HL-60, with ACHN, in the test on RXF 393, in the test on 786-0, with OVCAR-4 and in the test on SW-620 was > 100 µM (inactive) in each case.

For `CCN(c1n[n+]2c(-c3ccccc3)csc2s1)c1n[n+]2c(-c3ccccc3)csc2s1`, the GI50 was > 100 µM (inactive) in the test with SNB-75; over 100 µM in the test with HCT-15; 74.3 µM (inactive) in the test with OVCAR-8; 38 µM (inactive) in the test with SK-MEL-5; > 100 µM (inactive) with SF-539; 32.5 µM (inactive) with CCRF-CEM. Also, the GI50 is 36.9 µM (inactive) with UACC-257; > 100 µM (inactive) in the test with UO-31; 53.1 µM (inactive) in the test on NCI-H460; > 100 µM (inactive) in the test on OVCAR-5; > 100 µM (inactive) with A549; 92.5 µM (inactive) in the test with M14. Also, the GI50 was 22.3 µM (inactive) in the test on HL-60; > 100 µM (inactive) in the test with ACHN; 65.9 µM (inactive) with RXF 393; > 100 µM (inactive) in the test with 786-0; 35.4 µM (inactive) with OVCAR-4; 94.6 µM (inactive) in the test with SW-620.

`C\C=C/C=C/C=C/C(=O)O`: the GI50 was > 100 µM (inactive) with SNB-75; over 100 µM in the test with HCT-15; > 100 µM (inactive) with OVCAR-8; > 100 µM (inactive) with SK-MEL-5; > 100 µM (inactive) with SF-539; > 100 µM (inactive) in the test on CCRF-CEM. The GI50 in the test with UACC-257, in the test with UO-31, in the test on NCI-H460, with OVCAR-5, in the test on A549 and in the test on M14 was > 100 µM (inactive) in each case. For the same compound, the GI50 in the test with HL-60, in the test on ACHN, with RXF 393, with 786-0, with OVCAR-4 and in the test on SW-620 was > 100 µM (inactive) throughout.

With `COC(=O)C1=C(O)c2cc3c(cc2[C@H](c2cc(OC)c(OC)c(OC)c2)C1)OCO3`, the GI50 in the test with SNB-75 is > 100 µM (inactive); with HCT-15, 25.2 µM; in the test on OVCAR-8, 51.3 µM (inactive); with SK-MEL-5, 20.8 µM (inactive); in the test with SF-539 it was > 100 µM (inactive); with CCRF-CEM it was 38.1 µM (inactive). In addition, the GI50 with UACC-257 is 34 µM (inactive); in the test with UO-31, 3.24 µM (inactive); with NCI-H460, 34 µM (inactive); with OVCAR-5, > 100 µM (inactive); in the test on A549, 57.5 µM (inactive); in the test on M14, 34.7 µM (inactive). In addition, the GI50 in the test with HL-60 was 14.3 µM (inactive); with ACHN, 23.1 µM (inactive); in the test on RXF 393, 57.9 µM (inactive); in the test with 786-0, 58.5 µM (inactive); in the test on OVCAR-4 it was 32.5 µM (inactive); in the test with SW-620, 61.4 µM (inactive).

For the compound `Cc1cccc(C)c1NC(=O)CCC(=O)/N=C(\N)NC#N`, the GI50 in the test with SNB-75 was > 100 µM (inactive); in the test with HCT-15 it was over 100 µM; in the test on OVCAR-8, > 100 µM (inactive); in the test with SK-MEL-5, > 100 µM (inactive); with SF-539, > 100 µM (inactive); with CCRF-CEM, > 100 µM (inactive). For the same compound, the GI50 in the test with UACC-257, with UO-31, with NCI-H460, with OVCAR-5, in the test with A549 and in the test with M14 was > 100 µM (inactive) in each case. In addition, the GI50 in the test with HL-60, in the test with ACHN, in the test with RXF 393, in the test with 786-0, in the test with OVCAR-4 and in the test on SW-620 was > 100 µM (inactive) in each case.
